# Test results: patent US20050039223A1, “Knock-in-mouse” (priority 2002, published 2005)
# How the values were obtained:
# [1] = biological target: T1, nAChR containing α4-T265I (control α4, mutated α4 and β2) (Homo sapiens, UniProt P17787+P43681, T293I); assay: ACh- and CBZ-dose effect, two electrode voltage clamp in Xenopus oocytes expressing receptors containing α4-T265I; type: cell-based
# T1 construct: expressed in transfected cells; host or cells: Xenopus oocytes, nuclear cDNA injection
# Protocol: Expression experiments in Xenopus oocytes were conducted as previously described (2). Nuclear cDNA injections were conducted using a ratio of 0.5 control α4, 0.5 mutated α4 and 1 β2 (total amount 2 ng/oocytes) (3). The oocytes were kept in BARTH solution containing 88 mM NaCl, 1 mM KCl, 2.4 mM NaHCO3, 10 mM HEPES, 0.82 mM MgSO47H2O, 0.33 mM Ca(NO3)2.4H2O, 0.41 mM CaCl2.6H2O, pH 7.4, adjusted with NaOH and supplemented with kanamycin (20 μg/ml), penicillin (100 μg/ml) and streptomycin (100 μg/ml). Recordings were made 2 to 3 days later using the two electrode voltage clamp technique with a GENE-CLAMP amplifier (Axon Instrument). During the experiments the oocytes were continuously rinsed with OR2 solution: 82.5 mM NaCl, 2.5 mM KCl, 2.5 mM CaCl2, 5 mM HEPES, pH 7.4, adjusted with NaOH. Unless stated otherwise, the holding potential was −100 mV and the experiments were performed at 18° C. ACh dose response curves were best fitted by the sum of two empirical Hill equations: y=Imax{a/(1+(EC50H/x)^nH1)+(1−a)/(1+(EC50L/x)^nH2)} (equation (1)). Imax is the maximal current amplitude and x is the agonist concentration. EC50H, nH1 and a are the half-effective concentration, the Hill coefficient the percentage of receptors in high-affinity state, respectively, whereas EC50L and nH2 correspond to the half-effective concentration and the Hill coefficient in low-affinity state. […]
# [2] = system: ADNFLE; conditions: ADNFLE patients; antiepileptic drug resistant cases also exist; cited from earlier work
# T1 sequence (P43681 29-627 T293I limits assumed): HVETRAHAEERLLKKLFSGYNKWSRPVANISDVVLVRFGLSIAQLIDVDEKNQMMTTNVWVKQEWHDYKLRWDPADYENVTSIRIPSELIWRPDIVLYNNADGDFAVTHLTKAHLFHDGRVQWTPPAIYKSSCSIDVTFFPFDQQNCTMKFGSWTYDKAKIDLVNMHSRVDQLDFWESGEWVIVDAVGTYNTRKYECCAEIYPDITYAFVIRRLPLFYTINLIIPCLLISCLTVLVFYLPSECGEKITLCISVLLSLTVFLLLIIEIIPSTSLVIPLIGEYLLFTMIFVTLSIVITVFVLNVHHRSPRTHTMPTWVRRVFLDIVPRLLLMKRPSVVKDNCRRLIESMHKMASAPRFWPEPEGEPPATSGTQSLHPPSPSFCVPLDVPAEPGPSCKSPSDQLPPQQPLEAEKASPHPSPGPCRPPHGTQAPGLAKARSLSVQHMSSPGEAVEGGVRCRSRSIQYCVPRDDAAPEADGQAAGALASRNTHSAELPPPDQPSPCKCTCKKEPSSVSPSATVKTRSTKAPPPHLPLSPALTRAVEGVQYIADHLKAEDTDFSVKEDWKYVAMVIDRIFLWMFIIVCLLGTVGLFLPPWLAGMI
# T1 sequence (P43681 27-627, stated change not applied): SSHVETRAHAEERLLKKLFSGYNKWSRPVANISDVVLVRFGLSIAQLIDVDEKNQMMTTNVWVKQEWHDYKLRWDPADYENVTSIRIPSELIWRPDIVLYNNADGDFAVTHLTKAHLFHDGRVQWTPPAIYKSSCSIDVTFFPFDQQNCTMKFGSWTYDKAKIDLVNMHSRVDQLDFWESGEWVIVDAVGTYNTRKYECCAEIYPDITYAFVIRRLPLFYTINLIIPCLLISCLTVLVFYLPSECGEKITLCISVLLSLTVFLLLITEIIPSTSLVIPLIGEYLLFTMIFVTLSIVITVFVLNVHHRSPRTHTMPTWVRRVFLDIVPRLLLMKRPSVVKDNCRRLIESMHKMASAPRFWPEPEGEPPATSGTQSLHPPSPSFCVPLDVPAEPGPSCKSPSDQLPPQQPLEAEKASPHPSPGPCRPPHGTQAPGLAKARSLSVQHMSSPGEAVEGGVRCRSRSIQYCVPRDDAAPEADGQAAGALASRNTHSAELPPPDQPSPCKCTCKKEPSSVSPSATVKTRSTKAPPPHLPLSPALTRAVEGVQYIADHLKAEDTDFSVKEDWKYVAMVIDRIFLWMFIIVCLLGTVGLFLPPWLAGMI
# T1 sequence (P17787 26-502): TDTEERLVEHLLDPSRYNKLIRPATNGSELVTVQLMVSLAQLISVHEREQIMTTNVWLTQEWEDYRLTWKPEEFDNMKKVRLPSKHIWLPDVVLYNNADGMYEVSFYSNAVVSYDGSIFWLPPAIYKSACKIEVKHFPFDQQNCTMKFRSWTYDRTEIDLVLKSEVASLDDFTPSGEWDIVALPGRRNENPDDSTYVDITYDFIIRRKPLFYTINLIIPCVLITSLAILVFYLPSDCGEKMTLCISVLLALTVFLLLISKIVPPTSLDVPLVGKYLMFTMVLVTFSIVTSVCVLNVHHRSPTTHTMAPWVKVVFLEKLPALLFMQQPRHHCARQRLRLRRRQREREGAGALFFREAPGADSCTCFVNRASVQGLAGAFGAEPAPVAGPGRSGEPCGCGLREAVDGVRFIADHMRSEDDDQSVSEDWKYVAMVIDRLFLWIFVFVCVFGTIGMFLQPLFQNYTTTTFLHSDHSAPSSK
"Carbamazepin-sensitivity ([1]; α4-T265I compared with control, CBZ inhibition of ACh-evoked currents)",SMILES,Treatability of ADNFLE [2],"ACh-sensitivity of the mutated receptors ([1]; α4-T265I mutated receptors compared with control, Xenopus oocytes)"
non-increased,"NC(=O)N1c2ccccc2C=Cc2ccccc21 [Carbamazepin, Carbamazepine]",can normally be well treated,–
–,CC(=O)OCC[N+](C)(C)C [ACh],–,increased
